Results published in patent publication US9187467B2, “2-phenyl benzothiazole linked imidazole compounds as potential anticancer agents and process for the preparation thereof” (Council of Scientific and Industrial Research, priority 2012, dated 2015).
Like-named read-outs stand apart in the source and are kept apart here.

Tests used:
[1] = tested on: NCI-H522; assay: SRB anticancer assay, non-small lung; assay type: cell-based, human; conditions: Homo sapiens, NCI-H522, 48 h
[2] = tested on: SF-295; assay: SRB anticancer assay, CNS; assay type: cell-based, human; conditions: Homo sapiens, SF-295, 48 h
[3] = tested on: SNB-75; assay: SRB anticancer assay, CNS; assay type: cell-based, human; conditions: Homo sapiens, SNB-75, 48 h
[4] = tested on: 786-0; assay: SRB anticancer assay, renal; assay type: cell-based, human; conditions: Homo sapiens, 786-0, 48 h
[5] = tested on: TK-10; assay: SRB anticancer assay, renal; assay type: cell-based, human; conditions: Homo sapiens, TK-10, 48 h
[6] = tested on: MCF7; assay: SRB anticancer assay, breast; assay type: cell-based, human; conditions: Homo sapiens, MCF7, 48 h
[7] = tested on: HS 578T; assay: SRB anticancer assay, breast; assay type: cell-based, human; conditions: Homo sapiens, 48 h
[8] = tested on: LOX IMVI; assay: SRB anticancer assay, melanoma; assay type: cell-based, human; conditions: Homo sapiens, 48 h
[9] = tested on: SK-MEL-2; assay: SRB anticancer assay, melanoma; assay type: cell-based, human; conditions: Homo sapiens, SK-MEL-2, 48 h
[10] = tested on: UACC-62; assay: SRB anticancer assay, melanoma; assay type: cell-based, human; conditions: Homo sapiens, UACC-62, 48 h
[11] = tested on: Breast cancer cell lines; assay: SRB anticancer assay, panel result; assay type: cell-based, human
Experimental: (§1) The compounds were evaluated for anticancer activity against sixty human cancer cells derived from nine cancer types (leukemia cell line, non-small-cell lung cell line, colon cell line, CNS cell line, melanoma cell line, ovarian cell line, prostate cell line, renal cancer cell line and breast cancer cell line) as shown in Table 1. For each compound, dose response curves for each cell line were measured at a minimum of five concentrations at 10 fold dilutions. A protocol of 48 h continuous drug exposure was used and a sulforhodamine B (SRB) protein assay was used to estimate cell viability or growth.

[12] = tested on: CNS cancer cell lines; assay: SRB anticancer assay, panel result; assay type: cell-based, human
Experimental: as §1

[13] = tested on: Colon cancer cell lines; assay: SRB anticancer assay, panel result; assay type: cell-based, human
Experimental: as §1

[14] = tested on: Leukemia cancer cell lines; assay: SRB anticancer assay, panel result; assay type: cell-based, human
Experimental: as §1

[15] = tested on: Melanoma cancer cell lines; assay: SRB anticancer assay, panel result; assay type: cell-based, human
Experimental: as §1

[16] = tested on: Non-small cell lung cancer cell lines; assay: SRB anticancer assay, panel result; assay type: cell-based, human
Experimental: as §1

[17] = tested on: Ovarian cancer cell lines; assay: SRB anticancer assay, panel result; assay type: cell-based, human
Experimental: as §1

[18] = tested on: Prostate cancer cell lines; assay: SRB anticancer assay, panel result; assay type: cell-based, human; conditions: Prostate panel
Experimental: as §1

[19] = tested on: Renal cancer cell lines; assay: SRB anticancer assay, panel result; assay type: cell-based, human
Experimental: as §1

[20] = tested on: K562 (Leukemia) cells; assay: Cell cycle distribution by flow cytometry; assay type: cell-based
Experimental: In order to investigate the mechanism underlying the anti-proliferative effect of the compounds the cell cycle distribution was analyzed in K562 (Leukemia) and MCF-7 (Breast carcinoma) cell lines by flow cytometry. Compounds CA-4, 21a, 21d, 4c, 6d, 6e, 6f, 7d, 7h and 7j have shown 1.72%, 14%, 12%, 14%, 12%, 14%, 14%, 16%, 16% &12% in K562 cells and 49.63%, 21%, 20%, 18%, 21%, 21%, 21%, 24%, 23% and 23% in MCF-7 cell line respectively. […] Thus compound 7d was considered for further studies (FIG. 1).

COc1cc(OC)cc(-c2cncn2-c2ccc(-c3nc4cc(OC)cc(OC)c4s3)cc2)c1 [Compound 6d, 2-(4-(5-(3,5-Dimethoxyphenyl)-1H-imidazol-1-yl)phenyl)-5,7-dimethoxybenzo[d]thiazole]
GI50 [1]: 2.49 µM
GI50 [2]: 2.4 µM
GI50 [3]: 3.28 µM
GI50 [4]: 7.6 µM
GI50 [5]: 16.8 µM
GI50 [6]: 3.82 µM
GI50 [7]: 3.09 µM
GI50 [8]: 5.48 µM
GI50 [9]: 9.69 µM
GI50 [10]: 4.75 µM
mean graph midpoint value (MG_MID) of log10 TGI ([11]; Breast panel, total inhibition of net cell growth): >−4.0
CC50 ([11]; Homo sapiens, Breast panel, 50% net cell death, read-out: mean graph midpoint value (MG_MID) of Log10 LC50 (converted)): > 100 µM
GI50 ([11]; Homo sapiens, Breast panel, read-out: mean graph midpoint value (MG_MID) of Log10 GI50 (converted)): 4.57 µM
GI50 ([11]; Homo sapiens, six breast cancer cell lines, exposure at least 48 h, read-out: GI50, range over the panel): 3.09 to 9.01 µM
mean graph midpoint value (MG_MID) of log10 TGI ([12]; CNS panel, total inhibition of net cell growth): −4.19
CC50 ([12]; Homo sapiens, CNS panel, 50% net cell death, read-out: mean graph midpoint value (MG_MID) of Log10 LC50 (converted)): > 100 µM
GI50 ([12]; Homo sapiens, CNS panel, read-out: mean graph midpoint value (MG_MID) of Log10 GI50 (converted)): 7.94 µM
GI50 ([12]; Homo sapiens, six CNS cancer cell lines, exposure at least 48 h, read-out: GI50, range over the panel): 2.4 to 11.3 µM
mean graph midpoint value (MG_MID) of log10 TGI ([13]; Colon panel, total inhibition of net cell growth): >−4.0
LC50 ([13]; Homo sapiens, Colon panel, 50% net cell death, read-out: mean graph midpoint value (MG_MID) of Log10 LC50 (converted)): > 100 µM
GI50 ([13]; Homo sapiens, Colon panel, read-out: mean graph midpoint value (MG_MID) of Log10 GI50 (converted)): 13.2 µM
GI50 ([13]; Homo sapiens, seven colon cancer cell lines, exposure at least 48 h, read-out: GI50, range over the panel): 4.52 to 4.93 µM
LC50 ([14]; Homo sapiens, Leukemia panel, 50% net cell death, read-out: mean graph midpoint value (MG_MID) of Log10 LC50 (converted)): > 100 µM
GI50 ([14]; Homo sapiens, Leukemia panel, read-out: mean graph midpoint value (MG_MID) of Log10 GI50 (converted)): 3.31 µM
GI50 ([14]; Homo sapiens, six leukemia cancer cell lines, exposure at least 48 h, read-out: GI50, range over the panel): 3.22 to 3.3 µM
mean graph midpoint value (MG_MID) of log10 TGI ([14]; Leukemia panel, total inhibition of net cell growth): >−4.0
LC50 ([15]; Homo sapiens, Melanoma panel, 50% net cell death, read-out: mean graph midpoint value (MG_MID) of Log10 LC50 (converted)): > 100 µM
GI50 ([15]; Homo sapiens, Melanoma panel, read-out: mean graph midpoint value (MG_MID) of Log10 GI50 (converted)): 10.5 µM
GI50 ([15]; Homo sapiens, nine melanoma cancer cell lines, exposure at least 48 h, read-out: GI50, range over the panel): 1.53 to 9.69 µM
mean graph midpoint value (MG_MID) of log10 TGI ([15]; Melanoma panel, total inhibition of net cell growth): >−4.0
LC50 ([16]; Homo sapiens, Non-small cell lung panel, 50% net cell death, read-out: mean graph midpoint value (MG_MID) of Log10 LC50 (converted)): > 100 µM
GI50 ([16]; Homo sapiens, Non-small cell lung panel, read-out: mean graph midpoint value (MG_MID) of Log10 GI50 (converted)): 10.5 µM
GI50 ([16]; Homo sapiens, nine Non-small cell lung cancer cell lines, exposure at least 48 h, read-out: GI50, range over the panel): 2.49 to 18.5 µM
mean graph midpoint value (MG_MID) of log10 TGI ([16]; Non-small cell lung panel, total inhibition of net cell growth): −4.05
LC50 ([17]; Homo sapiens, Ovarian panel, 50% net cell death, read-out: mean graph midpoint value (MG_MID) of Log10 LC50 (converted)): > 100 µM
GI50 ([17]; Homo sapiens, Ovarian panel, read-out: mean graph midpoint value (MG_MID) of Log10 GI50 (converted)): 7.94 µM
GI50 ([17]; Homo sapiens, seven ovarian cancer cell lines, exposure at least 48 h, read-out: GI50, range over the panel): 2.87 to 14.5 µM
mean graph midpoint value (MG_MID) of log10 TGI ([17]; Ovarian panel, total inhibition of net cell growth): >−4.0
LC50 ([18]; Homo sapiens, 50% net cell death, read-out: mean graph midpoint value (MG_MID) of Log10 LC50 (converted)): > 100 µM
GI50 ([18]; Homo sapiens, read-out: mean graph midpoint value (MG_MID) of Log10 GI50 (converted)): > 100 µM
mean graph midpoint value (MG_MID) of log10 TGI ([18]; total inhibition of net cell growth): >−4.0
CC50 ([19]; Homo sapiens, Renal panel, 50% net cell death, read-out: mean graph midpoint value (MG_MID) of Log10 LC50 (converted)): > 100 µM
GI50 ([19]; Homo sapiens, Renal panel, read-out: mean graph midpoint value (MG_MID) of Log10 GI50 (converted)): 12.9 µM
GI50 ([19]; Homo sapiens, eight renal cancer cell lines, exposure at least 48 h, read-out: GI50, range over the panel): 2.13 to 16.8 µM
mean graph midpoint value (MG_MID) of log10 TGI ([19]; Renal panel, total inhibition of net cell growth): >−4.0
cells in G2/M phase [20]: 12%
